These results are taken from US20240277736A1, “USE OF PSILOCYBIN IN THE TREATMENT OF NEUROLOGICAL BRAIN INJURY AND MIGRAINES” (priority 2020, published 2024).

The subject of data set [1] is primary cortical neuronal culture (PCN). Briefly: Glutamate neurotoxicity in primary cortical neuronal culture, MAP2 immunostaining. The note with it: Glu 100 µM.
Another data set has as its system cluster headache (CH). The note with it: low-dose psilocybin; cited from earlier work.
Data set [2] can be described thus: Body weight of TBI mice on PID21. The class given is in vivo, CD1 mice. The note with it: for body weight: measured on PID21.
The target of another data set is 5-HT2A receptor (Homo sapiens, UniProt P28223). The following applies: cited from earlier work.
Sequence of 5-HT2A receptor (P28223 whole entry): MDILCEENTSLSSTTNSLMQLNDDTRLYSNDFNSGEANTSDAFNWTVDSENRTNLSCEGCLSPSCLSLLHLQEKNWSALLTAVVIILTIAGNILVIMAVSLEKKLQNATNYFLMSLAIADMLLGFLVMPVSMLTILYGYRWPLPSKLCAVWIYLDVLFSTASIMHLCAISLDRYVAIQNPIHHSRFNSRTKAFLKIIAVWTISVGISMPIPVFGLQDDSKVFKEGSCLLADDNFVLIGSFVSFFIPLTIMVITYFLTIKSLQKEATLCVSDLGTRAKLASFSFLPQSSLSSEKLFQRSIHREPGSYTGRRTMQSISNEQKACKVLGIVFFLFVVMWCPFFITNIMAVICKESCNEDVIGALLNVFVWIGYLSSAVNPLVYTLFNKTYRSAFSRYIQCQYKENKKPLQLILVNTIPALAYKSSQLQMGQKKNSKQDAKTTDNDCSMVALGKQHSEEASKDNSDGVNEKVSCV
Data set [3] can be described thus: Deaths during surgery or post-TBI drug treatment. The class given is in vivo, CD1 mice. The following applies: intranasal, day 4 to day 8 after CCI.
The next data set concerns the target T1, 5-HT1A (Homo sapiens, UniProt P08908).
T1 sequence (P08908 1-422): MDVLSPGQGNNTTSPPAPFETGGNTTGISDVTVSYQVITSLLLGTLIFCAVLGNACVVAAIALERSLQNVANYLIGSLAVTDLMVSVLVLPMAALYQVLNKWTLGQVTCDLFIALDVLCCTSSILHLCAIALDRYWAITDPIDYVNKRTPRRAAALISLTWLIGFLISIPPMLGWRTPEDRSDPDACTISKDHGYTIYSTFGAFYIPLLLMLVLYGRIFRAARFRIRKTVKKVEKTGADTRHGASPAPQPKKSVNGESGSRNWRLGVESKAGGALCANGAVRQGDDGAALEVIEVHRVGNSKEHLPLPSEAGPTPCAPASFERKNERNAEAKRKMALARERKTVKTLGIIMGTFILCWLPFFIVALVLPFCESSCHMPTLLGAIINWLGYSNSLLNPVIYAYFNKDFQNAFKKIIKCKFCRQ
The following applies: cited from earlier work.

The next data set concerns TBI mice. The experiment in a line: Morris water maze test in a mouse model of traumatic brain injury (controlled cortical impact).
Setting [4] is: high dose Psilocybin, day 4 to day 8, PID 10, 14 and 21.

“Also recorded” adds a separate entry of the source.

For `N[C@@H](CCC(=O)O)C(=O)O` [Glu, glutamate], in data set [1] (48 hrs), the “Effect on MAP2 immunoreactivity (MAP2-ir) vs. vehicle” value is “significantly reduced”.
In the case of `CN(C)CCc1c[nH]c2cccc(OP(=O)(O)O)c12` [Psilocybin, 4-phosphoryloxy-N,N-dimethyltryptamine], the “Effect on cluster headache” value with cluster headache (CH) is given as “can prevent”. Moreover, the “Body weight (in words)” value in data set [2] (PID21) is “did not significantly alter”. The body weight is on record as 34.7 ± 0.87 g in data set [2] (Psi-H (high dose)) and 35.71 ± 0.68 g in data set [2] (Psi-L (low dose)). The “Agonist activity at 5-HT2A receptor” value on 5-HT2A receptor is “strong agonist”. Moreover, the “Animal deaths during post-TBI drug treatment” value in data set [3] is listed as “No animal died”. Besides, the “Agonist activity at 5-HT1A” value at 5-HT1A is recorded as “moderate agonist”. Besides, the “No. of crossing (average number of platform crossings)” value is recorded as 4.43 ± 0.69 with TBI mice (Psi-H (high dose), Day 3 (PID3, before drug treatment)); 6.00 ± 0.85 with TBI mice (Psi-H (high dose, i.n. day 4 to day 8 after CCI), Day 10); 6.00 ± 0.44 in the data set with TBI mice (Psi-H (high dose, i.n. day 4 to day 8 after CCI), Day 14); 6.00 ± 0.66 in the data set with TBI mice (Psi-H (high dose, i.n. day 4 to day 8 after CCI), Day 21); 3.57 ± 0.90 in the data set on TBI mice (Psi-L (low dose), Day 3 (PID3, before drug treatment)); 4.14 ± 0.51 in the data set on TBI mice (Psi-L (low dose, i.n. day 4 to day 8 after CCI), Day 10). Moreover, the “No. of crossing (average number of platform crossings)” value in the data set on TBI mice (Psi-L (low dose, i.n. day 4 to day 8 after CCI), Day 14) worked out at 4.43 ± 0.61; with TBI mice (Psi-L (low dose, i.n. day 4 to day 8 after CCI), Day 21) it was 3.29 ± 0.57. Besides, the “Average number of platform crossings in TBI mice (in words)” value with TBI mice (setting [4]) is “significantly increased”. In the data set on TBI mice (setting [4]), the “Time in the target area in TBI mice (in words)” value is reported as “significantly increased”. The “Cognitive function in TBI mice (Morris water maze)” value in the data set on TBI mice (i.n. starting 4 days after TBI for 5 days) is given as “significantly improved”. For the same compound, in data set [1] (PSI 100 nM or 1 μM, n=5-6 per group), the “Antagonism of glutamate-mediated reduction of MAP2 immunoreactivity (neuronal loss)” value was “not significantly altered; also recorded: non-significant trend; also recorded: not significantly antagonized; also recorded: did not significantly alter”.
